In ChEMBL document CHEMBL3091425, “Benzoxazine Derivatives As CRAC Modulators” (ACS Med Chem Lett, 2013):

Tests used:
[1] = Modulation of calcium release-activated calcium channel in mitomycin C-stimulated human PBMC assessed as [3H]thymidine incorporation after 4 days by topcount scintillation counting analysis
[2] = Modulation of calcium release-activated calcium channel in human whole blood T cells assessed as inhibition of thapsigargin-stimulated IL2 production incubated 30 mins prior to thapsigargin-challenge measured after overnight incubation by AlphaLISA IL-2 assay; format: cell-based; conditions: T-cell
[3] = Modulation of calcium release-activated calcium channel in human jurkat cells assessed as inhibition of PHA/PMA/ionomycin-stimulated IL2 production incubated 10 mins prior to PHA/PMA/ionomycin-challenge measured after 18 to 20 hrs; format: cell-based

Compound | IC50 [1] [nM] | IC50 [2] [nM] | IC50 [3] [nM]
CCn1nc(-c2cccnc2)cc1-c1ccc2c(c1)OCC(c1c(F)cccc1F)N2 (stereo not drawn) | 330 | 320 | 70
Cc1sc(-c2cccnc2)nc1-c1ccc2c(c1)OCC(c1c(F)cccc1F)N2 (stereo not drawn) | 190 | 430 | 30
CCc1sc(-c2cccnc2)nc1-c1ccc2c(c1)OCC(c1c(F)cccc1F)N2 (stereo not drawn) | 100 | 520 | 30
CCc1sc(-c2cnccn2)nc1-c1ccc2c(c1)OCC(c1c(F)cccc1F)N2 (stereo not drawn) | 180 | 870 | 20
CCc1sc(-c2ccncc2)nc1-c1ccc2c(c1)OCC(c1c(F)cccc1F)N2 (stereo not drawn) | 440 | 320 | 20
CCc1sc(-c2cc(C)on2)nc1-c1ccc2c(c1)OCC(c1c(F)cccc1F)N2 (stereo not drawn) | 430 | 360 | 30
